One data set can be described thus: in vitro. The following applies: PAMPA; for permeability level compared with metoprolol / permeation rate relative to the progesterone monomer: pH 6.8. The protocol: (§1) The present invention involves the following detection instruments: • Single-crystal X-ray diffractometer: Bruker P4, Mo target, \ω scan, 296.15K; • Fourier infrared spectrometer: PerkinElmer Frontier FT/IR Spectrometer, normal temperature, KBr pellets, wavelength of 4000 to 450 cm^−1; • Powder X-ray diffractometer: Rigaku D/max-25509 kw, CuKα radiation, graphite monochromator; • Differential scanning calorimetry analyzer: Mettler Toledo DSC 822e, heating rate of 10° C./min, nitrogen flow rate of 50 mL/min; • Dynamic vapour sorption analyzer: SMS DVS advantage, 25° C.; • Dissolution apparatus: Tianjin Tianda Tianfa Technology Co., Ltd. RC806D, stirring paddle method; • Drug permeation rate tester: Pion Inc μFlux™.
Since the pH of fasting intestinal fluid in a human body is 6.5 and the pH of blood is 7.4, in order to make the conditions under which the permeation rate was measured close to the environment of the human gastrointestinal tract, pH 6.8 phosphate buffer was selected as the medium in the experiment. 3 mg of progesterone monomers and cocrystals of progesterone equivalent to 3 mg of progesterone were accurately weighed, and respectively placed in a donor compartment that represents the gastrointestinal tract, and 20 ml of pH 6.8 phosphate buffer was accurately added. 20 ml of pH 7.4 ASB buffer was accurately added to a receptor compartment that represents blood. The two compartments were separated by a biomimetic membrane with an area of 1.54 cm^2. The biomimetic membrane was coated with 25 μl of simulated gastrointestinal liposomes for infiltration, which represents the cell membrane of the gastrointestinal tract. At the temperature of 37° C. and the stirring speed of 200 rpm, sampling was conducted for 4 h, with an interval of 60 s between each two sampling procedures. The drug concentration in the receptor compartment was measured with a fiber optic probe within the ultraviolet wavelength range of 250 to 350 nm. The artificial membrane permeation rate of the drug was calculated according to Formula 1 (J/Flux).
[formula] represents the rate of change of drug concentration in the receptor compartment per unit time (μg·mL^−1·min^−1); V is the volume of buffer in the receptor compartment (mL); A is the area of the biomimetic membrane (cm^2); and Ct is the initial concentration of the drug in the donor compartment (μg·mL^−1).
The level of drug permeability can be determined by comparing the permeability of the drug with that of metoprolol measured by the same method.
For orientation: PAMPA measures passive passage across an artificial lipid membrane.

The nature of data set [1]: Determination of hygroscopicity by dynamic vapour sorption analysis. Format: physicochemical. The conditions noted are these: 25° C. As for the experimental part:
The nitrogen flow rate was 200 ml/min, and the relative humidity, varied in a stepped manner by a change of 10%, increased from 20% to 80%, and then dropped to 0%.

Data set [2] in a line: Determination of the dissolution rate (dissolution curves, stirring paddle method, HPLC). The conditions noted are these: for time at which the highest concentration was reached / highest value of concentration of progesterone on dissolution curve: 37±0.5° C.; for highest value of concentration of progesterone on dissolution curve: 50 to 100 rpm. The protocol:
as §1
The two dissolution media are water and pH 1.2 hydrochloric acid solution, respectively. […] The content of progesterone at the wavelength of 241 nm was measured by the HPLC method, and the dissolution amount was calculated by the external standard method. Dissolution curves with time as the abscissa and the concentration of progesterone as the ordinate were respectively plotted, as shown in FIGS. 5 and 6.

Data set [3] relates to Female immature white rabbits. The data set is described as follows: Pharmacodynamic experiment of cocrystals of progesterone: rabbit body weight and uterine index. Format: in vivo. The conditions noted are these: for Uterine index (weight of uterus / weight of rabbit): x ± s. As for the experimental part:
Female immature white rabbits were used and randomly divided into blank group, positive control group, low dose group, medium dose group and high dose group, with 10 rabbits in each group. The dose of progesterone that should be given to each rabbit is twice the clinical human dose of progesterone, and is calculated according to the rabbit's body weight. […] The intramuscular injections were performed for a consecutive 30 days. Weighing was performed on day 1 and day 30 respectively. A part of the uterine tissue 2 cm from the junction of the uterus and vagina in the direction of the ovary was cut and weighed. The uterine index was calculated by dividing the weight of the uterus by the weight of each rabbit.

[4] abbreviates: pH 1.2 hydrochloric acid solution.

Where a name gives a salt, the structure may show the parent alone. Read-outs that look alike come from different tables or passages of the source.

Usually Papp stands for a coefficient for how fast a substance crosses the barrier. The molecule `COCCc1ccc(OCC(O)CNC(C)C)cc1` (stereo not shown) [metoprolol tartrate, reference compound] showed an apparent permeability coefficient (Papp) at 4 h, 150 µg/mL in “in vitro” of 120 ×10⁻⁶ cm/s.

Regarding `CC(=O)[C@H]1CC[C@H]2[C@@H]3CCC4=CC(=O)CC[C@]4(C)[C@H]3CC[C@]12C` [progesterone, pregn-4-ene-3,20-dione], the hygroscopicity result in data set [1] (dynamic vapour sorption) is listed as “non-hygroscopic”. For the same molecule, the “change in relative mass (dynamic vapour sorption)” value in data set [1] (relative humidity 20% to 80% then to 0% in 10% steps) is “less than 0.2%”. Also, in data set [2] (setting [4]), the “time at which the highest concentration was reached” value (from here on “time”) came out at 120 min and the “highest value of concentration of progesterone on dissolution curve” value (shortened to “highest value”) was 7.87 µg/mL. In addition, in data set [2] (water), the “time” value was determined as 120 min and the “highest value” value amounted to 7.84 µg/mL. Also, in the data set “in vitro”, the Papp at 4 h, 150 µg/mL worked out at 1110 ×10⁻⁶ cm/s and the “permeability level compared with metoprolol” value is recorded as “high permeability”. Further, the “permeation rate (J, Flux)” value in “in vitro” (4 h, 150 µg/mL) came to 0.32 μg·min^−1·cm^−2.

Regarding `CC(=O)[C@H]1CC[C@H]2[C@@H]3CCC4=CC(=O)CC[C@]4(C)[C@H]3CC[C@]12C.O=C(O)c1cccc([N+](=O)[O-])c1C(=O)O` [progesterone-3-nitrophthalic acid cocrystal], the “solubility relative to the progesterone monomer” value in data set [2] turned out to be 1.3 times. The “solubility relative to the progesterone monomer” value in data set [2] (pH 1.2) is recorded as 1.3 times. In data set [2] (setting [4]), the “time” value is on record as 30 min and the “highest value” value was determined as 10.4 µg/mL. In data set [2] (water), the “time” value amounted to 90 min and the “highest value” value turned out to be 9.90 µg/mL. In addition, in the data set “in vitro”, the “effective permeability (Pe)” value was 1460 ×10⁻⁶ cm/s; the “permeation rate (J, Flux)” value is listed as 0.28 μg·min^−1·cm^−2; the “permeability level compared with metoprolol” value is reported as “high permeability”; the “permeation rate relative to the progesterone monomer” value is recorded as 0.9 times.

As to `CC(=O)[C@H]1CC[C@H]2[C@@H]3CCC4=CC(=O)CC[C@]4(C)[C@H]3CC[C@]12C.O=Cc1ccc(B(O)O)cc1` [progesterone-4-formylbenzeneboronic acid cocrystal], the “solubility relative to the progesterone monomer” value in data set [2] amounted to 1.2 times. In addition, the “solubility relative to the progesterone monomer” value in data set [2] (pH 1.2) worked out at 1.1 times. In data set [2] (setting [4]), the “time” value worked out at 120 min and the “highest value” value came to 8.77 µg/mL. Moreover, in data set [2] (water), the “time” value came to 60 min and the “highest value” value came out at 9.06 µg/mL. Further, in the data set “in vitro”, the “effective permeability (Pe)” value is 887 ×10⁻⁶ cm/s; the “permeation rate (J, Flux)” value was determined as 0.62 μg·min^−1·cm^−2; the “permeability level compared with metoprolol” value is given as “high permeability”; the “permeation rate relative to the progesterone monomer” value was 1.9 times.

With progesterone-isophthalic acid cocrystal, the “Uterine index (weight of uterus / weight of rabbit)” value stood at 0.025 ± 0.009% in data set [3] (3.5 mg·kg^−1 intramuscular for 30 consecutive days, low dose group); 0.029 ± 0.009 % in data set [3] (7 mg·kg^−1 intramuscular for 30 consecutive days, medium dose group); 0.035 ± 0.008% in data set [3] (14 mg·kg^−1 intramuscular for 30 consecutive days (high dose group / positive control group)). In data set [3] (3.5, 7 and 14 mg·kg^−1 intramuscular, 30 days), the “change of uterine index of rabbits as the dose increased” value is “increasing trend”. Further, the “statistical difference in uterine index versus positive control group” value is “no significant difference” in data set [3] (high dose group, 14 mg·kg^−1); “significant differences” in data set [3] (low dose group, 3.5 mg·kg^−1); “no significant difference” in data set [3] (medium dose group, 7 mg·kg^−1).

The values above are taken from patent US11866459B2, “Cocrystal of progesterone and preparation method and use thereof” (NATIONAL INSTITUTES FOR FOOD AND DRUG CONTROL, priority 2020, dated 2024).
